How the values were obtained:
BTK enzyme = target: T1, BTK enzyme (Homo sapiens, UniProt Q06187); test: In vitro BTK kinase assay: BTK-POLYGAT-LS assay; format: biochemical; details: ATP 10 μM, read-out: IC50 (10uMATP)
T1 construct: purchased Upstate 14-552
How it was run: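 Human BTK activity was measured with final 10 μM ATP and 100 nM polyGAT substrate in pH 7.5 Tris buffer with 10 mM MgCl2, DTT, Triton X-100 and casein.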

[1] = target: BTK (phospho-BTK) in human whole blood (Homo sapiens, UniProt Q06187); test: In vitro PD assay in human whole blood (pBTK assay)
Chain of BTK (phospho-BTK) in human whole blood (Q06187 whole entry): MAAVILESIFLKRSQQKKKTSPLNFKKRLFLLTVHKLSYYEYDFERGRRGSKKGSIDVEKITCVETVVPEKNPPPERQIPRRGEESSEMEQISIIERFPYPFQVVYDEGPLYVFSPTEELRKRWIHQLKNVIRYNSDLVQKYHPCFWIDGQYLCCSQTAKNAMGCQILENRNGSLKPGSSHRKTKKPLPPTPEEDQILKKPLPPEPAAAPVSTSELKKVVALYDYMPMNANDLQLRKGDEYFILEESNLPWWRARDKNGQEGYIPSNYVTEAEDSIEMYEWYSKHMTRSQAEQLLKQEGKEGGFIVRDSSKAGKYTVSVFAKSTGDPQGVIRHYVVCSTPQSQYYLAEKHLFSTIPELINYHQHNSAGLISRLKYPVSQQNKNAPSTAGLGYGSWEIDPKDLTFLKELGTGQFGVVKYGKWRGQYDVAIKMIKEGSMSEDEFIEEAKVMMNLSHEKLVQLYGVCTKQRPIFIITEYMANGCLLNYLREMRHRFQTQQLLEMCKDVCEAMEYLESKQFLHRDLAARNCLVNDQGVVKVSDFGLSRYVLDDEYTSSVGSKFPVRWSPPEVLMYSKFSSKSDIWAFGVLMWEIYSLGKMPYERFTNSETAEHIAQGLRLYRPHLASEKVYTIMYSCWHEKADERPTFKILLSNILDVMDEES

T1 sequence (Q06187 whole entry): as above

IC50 (BTK enzyme) | IC50 [1] | SMILES
< 10 nM | < 500 nM | CN1CC(n2cc(Nc3nccc(-c4ccc(CNC(=O)c5cnn(C(C)(C)C)c5)c(C(F)(F)F)c4)n3)cn2)C1 [Example I-201, 1-(tert-butyl)-N-(4-(2-((1-(1-methylazetidin-3-yl)-1H-pyrazol-4-yl)amino)pyrimidin-4-yl)-2-(trifluoromethyl)benzyl)-1H-pyrazole-4-carboxamide]
< 10 nM | < 500 nM | Cn1cc(Nc2nccc(-c3ccc(CNC(=O)c4cnn(C(C)(C)C)c4)c(C(F)(F)F)c3)n2)cn1 [Example I-202, 1-(tert-butyl)-N-(4-(2-((1-methyl-1H-pyrazol-4-yl)amino)pyrimidin-4-yl)-2-(trifluoromethyl)benzyl)-1H-pyrazole-4-carboxamide]
< 10 nM | < 500 nM | CN1CC[C@H](n2cc(Nc3nccc(-c4ccc(CNC(=O)N5CCC(C(C)(C)C)C5)c(C(F)(F)F)c4)n3)cn2)C1 (stereo partly drawn) [Example I-207, 3-(tert-butyl)-N-(4-(2-((1-((S)-1-methylpyrrolidin-3-yl)-1H-pyrazol-4-yl)amino)pyrimidin-4-yl)-2-(trifluoromethyl)benzyl)pyrrolidine-1-carboxamide]
< 10 nM | < 500 nM | CN1CC[C@@H](n2cc(Nc3nccc(-c4ccc(CNC(=O)N5CCC(C(C)(C)C)C5)c(C(F)(F)F)c4)n3)cn2)C1 (stereo partly drawn) [Example I-208, 3-(tert-butyl)-N-(4-(2-((1-((R)-1-methylpyrrolidin-3-yl)-1H-pyrazol-4-yl)amino)pyrimidin-4-yl)-2-(trifluoromethyl)benzyl)pyrrolidine-1-carboxamide]
< 10 nM | < 500 nM | CC(C)(C)C1CCN(C(=O)NCc2ccc(-c3ccnc(Nc4cnn(CCO)c4)n3)cc2C(F)(F)F)C1 (stereo not drawn) [Example I-209, 3-(tert-butyl)-N-(4-(2-((1-(2-hydroxyethyl)-1H-pyrazol-4-yl)amino)pyrimidin-4-yl)-2-(trifluoromethyl)benzyl)pyrrolidine-1-carboxamide]
< 10 nM | < 500 nM | Cn1cc(Nc2nccc(-c3ccc(CNC(=O)N4CCC(C(C)(C)C)C4)c(C#N)c3)n2)cn1 (stereo not drawn) [Example I-210, 3-(tert-butyl)-N-(2-cyano-4-(2-((1-methyl-1H-pyrazol-4-yl)amino)pyrimidin-4-yl)benzyl)pyrrolidine-1-carboxamide]
< 10 nM | < 500 nM | Cn1cc(Nc2nccc(-c3ccc(CNC(=O)c4cnn(C(C)(C)C)c4)c(C#N)c3)n2)cn1 [Example I-211, 1-(tert-butyl)-N-(2-cyano-4-(2-((1-methyl-1H-pyrazol-4-yl)amino)pyrimidin-4-yl)benzyl)-1H-pyrazole-4-carboxamide]
< 10 nM | < 500 nM | CNC(=O)C(C)(C)n1cc(Nc2nccc(-c3ccc(CNC(=O)N4CC(OC(C)C)C4)c(C)c3)n2)cn1 [Example I-212, 3-isopropoxy-N-(2-methyl-4-(2-((1-(2-methyl-1-(methylamino)-1-oxopropan-2-yl)-1H-pyrazol-4-yl)amino)pyrimidin-4-yl)benzyl)azetidine-1-carboxamide]
< 10 nM | < 500 nM | COCCn1cc(Nc2nccc(-c3ccc(CNC(=O)N4CC(OC(C)C)C4)c(C)c3)n2)cn1 [Example I-213, 3-isopropoxy-N-(4-(2-((1-(2-methoxyethyl)-1H-pyrazol-4-yl)amino)pyrimidin-4-yl)-2-methylbenzyl)azetidine-1-carboxamide]
< 10 nM | < 500 nM | Cc1cc(-c2ccnc(Nc3cnn(CCO)c3)n2)ccc1CNC(=O)N1CC(OC(C)C)C1 [Example I-217, N-(4-(2-((1-(2-hydroxyethyl)-1H-pyrazol-4-yl)amino)pyrimidin-4-yl)-2-methylbenzyl)-3-isopropoxyazetidine-1-carboxamide]
< 10 nM | < 500 nM | Cc1cc(-c2ccnc(Nc3cnn(C4CN(C)C4)c3)n2)ccc1CNC(=O)N1CC(OC(C)C)C1 [Example I-218, 3-isopropoxy-N-(2-methyl-4-(2-((1-(1-methylazetidin-3-yl)-1H-pyrazol-4-yl)amino)pyrimidin-4-yl)benzyl)azetidine-1-carboxamide]
< 10 nM | < 500 nM | Cc1cc(-c2ccnc(Nc3cnn(C4CCN(C)CC4)c3)n2)ccc1CNC(=O)N1CC(OC(C)C)C1 [Example I-219, 3-isopropoxy-N-(2-methyl-4-(2-((1-(1-methylpiperidin-4-yl)-1H-pyrazol-4-yl)amino)pyrimidin-4-yl)benzyl)azetidine-1-carboxamide]
< 10 nM | < 500 nM | Cc1cc(-c2ccnc(Nc3cnn(C4CCOCC4)c3)n2)ccc1CNC(=O)N1CC(OC(C)C)C1 [Example I-221, 3-isopropoxy-N-(2-methyl-4-(2-((1-(tetrahydro-2H-pyran-4-yl)-1H-pyrazol-4-yl)amino)pyrimidin-4-yl)benzyl)azetidine-1-carboxamide]
< 10 nM | 500 to 1500 nM | Cc1cc(-c2ccnc(Nc3cn[nH]c3)n2)ccc1CNC(=O)N1CC(OC(C)C)C1 [Example I-222, N-(4-(2-((1H-pyrazol-4-yl)amino)pyrimidin-4-yl)-2-methylbenzyl)-3-isopropoxyazetidine-1-carboxamide]
< 10 nM | < 500 nM | Cc1cc(-c2ccnc(Nc3cnn(C)c3)n2)ccc1CNC(=O)N1CCC(C(C)(C)C)C1 (stereo not drawn) [Example I-224, 3-(tert-butyl)-N-(2-methyl-4-(2-((1-methyl-1H-pyrazol-4-yl)amino)pyrimidin-4-yl)benzyl)pyrrolidine-1-carboxamide]
< 10 nM | < 500 nM | Cc1cc(-c2cc(Nc3ccc(N4CCN(C)CC4)cn3)ncn2)ccc1CNC(=O)c1cnn(C(C)(C)C)c1 [Example I-225, 1-(tert-butyl)-N-(2-methyl-4-(6-((5-(4-methylpiperazin-1-yl)pyridin-2-yl)amino)pyrimidin-4-yl)benzyl)-1H-pyrazole-4-carboxamide]
< 10 nM | < 500 nM | Cc1cc(-c2cc(Nc3ccc(N4CCN(C)CC4)cn3)ncn2)ccc1CNC(=O)c1ccn(C(C)(C)C)n1 [Example I-226, 1-(tert-butyl)-N-(2-methyl-4-(6-((5-(4-methylpiperazin-1-yl)pyridin-2-yl)amino)pyrimidin-4-yl)benzyl)-1H-pyrazole-3-carboxamide]
< 10 nM | < 500 nM | COCCn1cc(Nc2nccc(-c3ccc4c(c3)CCCC[C@H]4NC(=O)N3CC(OC(C)C)C3)n2)cn1 [Example I-227, (R)-3-isopropoxy-N-(2-(2-((1-(2-methoxyethyl)-1H-pyrazol-4-yl)amino)-pyrimidin-4-yl)-6,7,8,9-tetrahydro-5H-benzo[7]annulen-5-yl)azetidine-1-carboxamide]

SMILES | IC50 (BTK enzyme) | IC50 [1]
CCn1cc(Nc2nccc(-c3ccc(CNC(=O)N4CC(OC(C)(C)C)C4)c(C(F)(F)F)c3)n2)cn1 [Example I-203, 3-(tert-butoxy)-N-(4-(2-((1-ethyl-1H-pyrazol-4-yl)amino)pyrimidin-4-yl)-2-(trifluoromethyl)benzyl)azetidine-1-carboxamide] | < 10 nM | < 500 nM
COCCn1cc(Nc2nccc(-c3ccc(CNC(=O)N4CC(OC(C)(C)C)C4)c(C(F)(F)F)c3)n2)cn1 [Example I-204, 3-(tert-butoxy)-N-(4-(2-((1-(2-methoxyethyl)-1H-pyrazol-4-yl)amino)pyrimidin-4-yl)-2-(trifluoromethyl)benzyl)azetidine-1-carboxamide] | < 10 nM | < 500 nM
CC(C)(C)OC1CN(C(=O)NCc2ccc(-c3ccnc(Nc4cnn(CCO)c4)n3)cc2C(F)(F)F)C1 [Example I-205, 3-(tert-butoxy)-N-(4-(2-((1-(2-hydroxyethyl)-1H-pyrazol-4-yl)amino)pyrimidin-4-yl)-2-(trifluoromethyl)benzyl)azetidine-1-carboxamide] | < 10 nM | < 500 nM
CN1CC(n2cc(Nc3nccc(-c4ccc(CNC(=O)N5CC(OC(C)(C)C)C5)c(C(F)(F)F)c4)n3)cn2)C1 [Example I-206, 3-(tert-butoxy)-N-(4-(2-((1-(1-methylazetidin-3-yl)-1H-pyrazol-4-yl)amino)pyrimidin-4-yl)-2-(trifluoromethyl)benzyl)azetidine-1-carboxamide] | < 10 nM | < 500 nM
Cc1cc(-c2ccnc(Nc3cnn(CCO)c3)n2)ccc1CNC(=O)N1CC(OC(C)(C)C)C1 [Example I-214, 3-(tert-butoxy)-N-(4-(2-((1-(2-hydroxyethyl)-1H-pyrazol-4-yl)amino)pyrimidin-4-yl)-2-methylbenzyl)azetidine-1-carboxamide] | < 10 nM | < 500 nM
Cc1cc(-c2ccnc(Nc3cnn(C4CN(C)C4)c3)n2)ccc1CNC(=O)N1CC(OC(C)(C)C)C1 [Example I-215, 3-(tert-butoxy)-N-(2-methyl-4-(2-((1-(1-methylazetidin-3-yl)-1H-pyrazol-4-yl)amino)pyrimidin-4-yl)benzyl) azetidine-1-carboxamide] | < 10 nM | < 500 nM
CCn1cc(Nc2nccc(-c3ccc(CNC(=O)N4CC(OC(C)(C)C)C4)c(C)c3)n2)cn1 [Example I-216, 3-(tert-butoxy)-N-(4-(2-((1-ethyl-1H-pyrazol-4-yl)amino)pyrimidin-4-yl)-2-methylbenzyl)azetidine-1-carboxamide] | < 10 nM | < 500 nM
Cc1cc(-c2ccnc(Nc3cnn(C)c3C)n2)ccc1CNC(=O)N1CC(OC(C)(C)C)C1 [Example I-223, 3-(tert-butoxy)-N-(4-(2-((1,5-dimethyl-1H-pyrazol-4-yl)amino)pyrimidin-4-yl)-2-methylbenzyl)azetidine-1-carboxamide] | < 10 nM | 500 to 1500 nM
CC(C)(C)OC1CN(C(=O)N[C@@H]2CCCCc3cc(-c4ccnc(Nc5cnn(CCO)c5)n4)ccc32)C1 [Example I-229, (R)-3-(tert-butoxy)-N-(2-(2-((1-(2-hydroxyethyl)-1H-pyrazol-4-yl)amino)-pyrimidin-4-yl)-6,7,8,9-tetrahydro-5H-benzo[7]annulen-5-yl)azetidine-1-carboxamide] | < 10 nM | < 500 nM
